Source: PubChem BioAssay (NCI)
Several values for one entry are separate records, joined by “and”; a condition that tells them apart may be missing. Identical values can stand only once.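 Exposure lasted 48 hours, with cells grown in 96-well plates and compounds tested at five concentrations. GI50 marks 50% less growth. TGI: concentration producing complete growth inhibition.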

Legend:
Test in all cases: growth of human tumour cells (NCI), 48 h
[1] = tested on: HT29 colon
[2] = tested on: 786-0 renal
[3] = tested on: UACC-257 melanoma
[4] = tested on: SN12C renal
[5] = tested on: HCC-2998 colon
[6] = tested on: SK-MEL-2 melanoma
[7] = tested on: OVCAR-4 ovarian
[8] = tested on: HOP-62 NSCLC
[9] = tested on: MALME-3M melanoma
[10] = tested on: SF-268 CNS

| Structure (SMILES) | GI50 [1] | GI50 [2] | TGI [2] | GI50 [3] | TGI [3] | GI50 [4] | TGI [4] | GI50 [5] | TGI [5] | GI50 [6] | TGI [6] | GI50 [7] | TGI [7] | GI50 [8] | TGI [8] | GI50 [9] | TGI [9] | GI50 [10] | TGI [10] | TGI [1] |
| --- | --- | --- | --- | --- | --- | --- | --- | --- | --- | --- | --- | --- | --- | --- | --- | --- | --- | --- | --- | --- |
| C[C@@H](O)[C@@H](C)Oc1nc(Nc2ccc(S(=N)(=O)C3CC3)cc2)ncc1C(F)(F)F (stereo partly drawn) | 33 nM | 35.2 nM | 17.8 µM | 30.6 nM | 0.133 µM | 34.2 nM | > 100 µM | 46.5 nM | 2.72 µM | 21.9 nM | 0.0621 µM | 44.2 nM | 26.9 µM | 28.3 nM | 16.4 µM | 45.5 nM | 0.167 µM | 30 nM | 0.726 µM | – |
| N#C/C(=C\c1ccc(O)c(O)c1)C(=O)NCc1ccc(C(F)(F)F)cc1 | 15700 nM | 18400 nM | 37.5 µM | 17900 nM | > 68.6 µM | 4060 nM | 18.8 µM | 12100 nM | 24.5 µM | – | 6.34 µM | 13300 nM | > 71.9 µM | 9480 nM | 26.9 µM | 771 nM | 30.7 µM | 14900 nM | > 62.9 µM | 50.7 µM |
| COC(=O)c1cc(-c2ccc3ccccc3c2)[nH]c(=O)c1C#N | – | – | > 100 µM | – | > 100 µM | – | > 100 µM | – | > 100 µM | – | > 100 µM | – | > 100 µM | – | > 100 µM | – | > 100 µM | – | > 100 µM | > 100 µM |
| COc1cc2c(Oc3ccc(NC(=O)C4(C(=O)Nc5ccc(F)cc5)CC4)cc3F)ccnc2cc1OCCCN1CCOCC1 | 387 nM | 1610 nM and 1540 nM | 3.11 µM and 2.99 µM | 1190 nM | 2.78 µM | 266 nM and 259 nM | 13.3 µM and > 10 µM | 1240 nM and 1310 nM | 2.62 µM and 4.31 µM | 1440 nM and 1630 nM | 2.93 µM and 3.74 µM | 747 nM and 2560 nM | 13.2 µM and > 10 µM | 798 nM and 573 nM | 2.17 µM and 4.15 µM | 635 nM and 571 nM | 2.51 µM and 2.05 µM | 858 nM and 1190 nM | 2.37 µM and 7.01 µM | 1.8 µM |
| NC1=NN(c2ccccc2)C(=O)C1C(=O)C(=O)Nc1ccc(Cl)cc1 (stereo not drawn) | – | – | > 100 µM | – | > 100 µM | – | > 100 µM | – | > 100 µM | – | > 100 µM | – | > 100 µM | – | > 100 µM | – | > 100 µM | – | > 100 µM | > 100 µM |
| COC(=O)C(C(=O)C(=O)Nc1ccc(C)cc1)c1nc2ccc([N+](=O)[O-])cc2[nH]c1=O (stereo not drawn) | – | – | > 100 µM | – | > 100 µM | – | > 100 µM | – | > 100 µM | – | > 100 µM | – | > 100 µM | – | > 100 µM | – | > 100 µM | – | > 100 µM | > 100 µM |
| Cc1nnc(C[C@@H]2C=C(c3ccc(Cl)cc3)c3ccccc3-n3c(C)nnc32)o1 | 241 nM | 1040 nM | 38.7 µM | 2430 nM | > 100 µM | 12000 nM | > 100 µM | 1330 nM | 18.6 µM | 10200 nM | 47.6 µM | 1290 nM | > 100 µM | 318 nM | > 90.4 µM | 5010 nM | 64.6 µM | 13100 nM | 73.5 µM | > 100 µM |
